Data published in patent publication US4122034A, “Antimicrobial compositions” (Schering Corporation, priority 1975, dated 1978).
≈ marks a conversion by molar mass, not a printed value.

Assays:
Escherichia coli = experiment: In vitro antibacterial activity, dilution in Mueller Hinton Agar (Table I); format: cell-based
Method: (§1) All the tests were carried out and (when necessary) scored under standard conditions. "MIC" means "minimum inhibitory concentration."
(§2) In vitro Antibacterial Activity of 2-aminoalkyl-3-phenyl-
(§3) indoles of the formula I. Dilution in Mueller Hinton Agar pH 7.4

Proteus mirabilis = experiment: as above; format: cell-based; conditions: Mueller Hinton Agar pH 7.4
Method: as §1, §2, §3

Streptococcus pyogenes = experiment: as above; format: cell-based
Method: as §1, §2, §3

Bacteroides corrodens = experiment: In vitro activity against anaerobes in fluid Thioglycollate medium (Table II); format: cell-based; conditions: Eikenella corrodens
Method: as §1
(§4) In vitro activity of 2-aminoalkyl-3-phenylindoles of the formula I
(§5) against anaerobes in fluid Thioglycollate medium

Bacteroides fragilis = experiment: as above; format: cell-based
Method: as §1, §4, §5

[1] = system: Bacteroides melaninogenicus; experiment: as above; format: cell-based
Method: as §1, §4, §5

Clostridium histolyticum = experiment: as above; format: cell-based; conditions: Hathewaya histolytica
Method: as §1, §4, §5

Clostridium novyi = experiment: as above; format: cell-based
Method: as §1, §4, §5

Clostridium septicum = experiment: as above; format: cell-based
Method: as §1, §4, §5

Eubacterium lentum = experiment: as above; format: cell-based; conditions: Eggerthella lenta
Method: as §1, §4, §5

Peptostreptococcus = experiment: as above; format: cell-based
Method: as §1, §4, §5

Candida albicans = experiment: In vitro Anti-Candida activity, dilutions in Sabouraud's Dextrose Agar (Table III); format: cell-based; conditions: 48 h
Method: as §1
In vitro Anti-Candida Activity of 2-aminoalkyl-3-phenyl-
indoles of the formula I. Dilutions in Sabouraud's Dextrose
MIC (mcg/ml) after 48 hours

Aspergillus niger 6275 = experiment: In vitro antifungal activity, dilutions in Sabouraud's Dextrose Broth (Table IV); format: cell-based; conditions: after 96 hours
Method: as §1
(§6) In vitro Antifungal Activity of 2-amioalkyl-3-phenylindoles
(§7) of the formula I against Dermetophytes and Aspergillus.
(§8) Dilutions in Sabouraud's Dextrose Broth.

Aspergillus sp. No. 3 = experiment: as above; format: cell-based; conditions: after 96 hours
Method: as §1, §6, §7, §8

Epidermophyton floccosum = experiment: as above; format: cell-based; conditions: after 96 hours
Method: as §1, §6, §7, §8

Microsporum distortum = experiment: as above; format: cell-based; conditions: after 96 hours
Method: as §1, §6, §7, §8

Microsporum nanum = experiment: as above; format: cell-based; conditions: Nannizzia nana; after 96 hours
Method: as §1, §6, §7, §8

Trichophyton ascoides = experiment: as above; format: cell-based; conditions: after 96 hours
Method: as §1, §6, §7, §8

Trichophyton discoides = experiment: as above; format: cell-based; conditions: after 96 hours
Method: as §1, §6, §7, §8

Trichophyton ferrugineum = experiment: as above; format: cell-based; conditions: Microsporum ferrugineum; after 96 hours
Method: as §1, §6, §7, §8

Trichophyton gallinae = experiment: as above; format: cell-based; conditions: after 96 hours
Method: as §1, §6, §7, §8

Trichophyton megninii = experiment: as above; format: cell-based; conditions: Trichophyton rubrum; after 96 hours
Method: as §1, §6, §7, §8

[2] = system: Trichophyton mentagrophytes; experiment: as above; format: cell-based; conditions: 96 h
Method: as §1, §6, §7, §8

Trichophyton rubrum = experiment: as above; format: cell-based; conditions: 96 h
Method: as §1, §6, §7, §8

[3] = system: Trichophyton schoenleinii; experiment: as above; format: cell-based; conditions: 96 h
Method: as §1, §6, §7, §8

Trichophyton soudenense = experiment: as above; format: cell-based; conditions: after 96 hours
Method: as §1, §6, §7, §8

Trichophyton tonsurans = experiment: as above; format: cell-based; conditions: after 96 hours
Method: as §1, §6, §7, §8

Tricoderm sp. = experiment: as above; format: cell-based; conditions: after 96 hours
Method: as §1, §6, §7, §8

[4] = Acute toxicity in mice (Table V); conditions: mouse, in vivo
Method: as §1
Acute Toxicity of 2-aminoalkyl-3-phenylindoles of the formula I

Trychomonas vaginalis = experiment: In vitro Anti-Trichomonal activity (Table VII); format: cell-based
Method: as §1
In vitro Anti-Trichomonal Activity of some 2-aminoalkyl-3-
phenyl-indenes of formula II.

`NCc1[nH]c2ccc(Cl)cc2c1-c1ccccc1F` [A, 2-Aminomethyl-5-chloro-3-(2-fluorophenyl)indole] showed an MIC (Escherichia coli; pH 7.4, strain 777, Mueller Hinton Agar pH 7.4) of 3 µg/mL (≈ 10.9 µM), an MIC (Escherichia coli; pH 7.4, strain 1574-1, Mueller Hinton Agar pH 7.4) of 7.5 µg/mL (≈ 27.3 µM) and an MIC (Escherichia coli; pH 7.4, strain 4195, Mueller Hinton Agar pH 7.4) of 3 µg/mL (≈ 10.9 µM). For the same compound, the MIC (Escherichia coli; pH 7.4, strain 10536, Mueller Hinton Agar pH 7.4) was 7.5 µg/mL (≈ 27.3 µM), the MIC (Escherichia coli; pH 7.4, strain JR66, Mueller Hinton Agar pH 7.4) was 3 µg/mL (≈ 10.9 µM) and the MIC (Proteus mirabilis; pH 7.4, strain Hard) was 17.5 µg/mL (≈ 63.7 µM). For the same compound, the MIC (Proteus mirabilis; pH 7.4, strain Peras) was 7.5 µg/mL (≈ 27.3 µM), the MIC (Streptococcus pyogenes; pH 7.4, strain 27, Mueller Hinton Agar pH 7.4) was 7.5 µg/mL (≈ 27.3 µM) and the MIC (Streptococcus pyogenes; pH 7.4, strain C, Mueller Hinton Agar pH 7.4) was 7.5 µg/mL (≈ 27.3 µM). The MIC (Streptococcus pyogenes; pH 7.4, strain Cruz, Mueller Hinton Agar pH 7.4) was 3 µg/mL (≈ 10.9 µM), the MIC (Bacteroides corrodens; 48 hrs) was 7.5 µg/mL (≈ 27.3 µM) and the MIC (Bacteroides corrodens; 72 hrs) was 7.5 µg/mL (≈ 27.3 µM). It also gave an MIC (Bacteroides fragilis; 48 hrs) of 7.5 µg/mL (≈ 27.3 µM), an MIC (Bacteroides fragilis; 72 hrs) of 7.5 µg/mL (≈ 27.3 µM) and an MIC ([1]; 48 hrs) of 7.5 µg/mL (≈ 27.3 µM). It also gave an MIC ([1]; 72 hrs) of 7.5 µg/mL (≈ 27.3 µM), an MIC (Clostridium histolyticum; 48 hrs) of 7.5 µg/mL (≈ 27.3 µM) and an MIC (Clostridium histolyticum; 72 hrs) of 7.5 µg/mL (≈ 27.3 µM). For the same compound, the MIC (Clostridium novyi; 48 hrs) was 7.5 µg/mL (≈ 27.3 µM), the MIC (Clostridium novyi; 72 hrs) was 7.5 µg/mL (≈ 27.3 µM) and the MIC (Clostridium septicum; 48 hrs) was 7.5 µg/mL (≈ 27.3 µM). The MIC (Clostridium septicum; 72 hrs) was 7.5 µg/mL (≈ 27.3 µM), the MIC (Eubacterium lentum; 48 hrs) was 17.5 µg/mL (≈ 63.7 µM) and the MIC (Eubacterium lentum; 72 hrs) was 17.5 µg/mL (≈ 63.7 µM). For the same compound, the MIC (Peptostreptococcus; 48 hrs) was 3 µg/mL (≈ 10.9 µM), the MIC (Peptostreptococcus; 72 hrs) was 3 µg/mL (≈ 10.9 µM) and the MIC (Candida albicans; strain 1, after 48 hours) was 75 µg/mL (≈ 273 µM). It also gave an MIC (Candida albicans; strain 2, after 48 hours) of 75 µg/mL (≈ 273 µM), an MIC (Candida albicans; strain 3, after 48 hours) of 75 µg/mL (≈ 273 µM) and an MIC (Candida albicans; strain 4, after 48 hours) of 75 µg/mL (≈ 273 µM). For the same compound, the MIC (Candida albicans; strain 5, after 48 hours) was 75 µg/mL (≈ 273 µM), the MIC (Candida albicans; strain 6, after 48 hours) was 75 µg/mL (≈ 273 µM) and the MIC (Candida albicans; strain 8, after 48 hours) was 75 µg/mL (≈ 273 µM). It also gave an MIC (Candida albicans; strain 9, after 48 hours) of 75 µg/mL (≈ 273 µM), an MIC (Candida albicans; strain 29, after 48 hours) of 75 µg/mL (≈ 273 µM) and an MIC (Candida albicans; strain Atkisson, after 48 hours) of 75 µg/mL (≈ 273 µM). For the same compound, the MIC (Candida albicans; strain Bertrand, after 48 hours) was 75 µg/mL (≈ 273 µM), the MIC (Candida albicans; strain Bevan, after 48 hours) was 75 µg/mL (≈ 273 µM) and the MIC (Candida albicans; strain Blunden, after 48 hours) was 75 µg/mL (≈ 273 µM). The MIC (Candida albicans; strain Bognay, after 48 hours) was 75 µg/mL (≈ 273 µM), the MIC (Candida albicans; strain Boyer, after 48 hours) was 75 µg/mL (≈ 273 µM) and the MIC (Candida albicans; strain Burke, after 48 hours) was 75 µg/mL (≈ 273 µM). The MIC (Candida albicans; strain Burnside, after 48 hours) was 75 µg/mL (≈ 273 µM), the MIC (Candida albicans; strain Collins, after 48 hours) was 75 µg/mL (≈ 273 µM) and the MIC (Candida albicans; strain Fix, after 48 hours) was 75 µg/mL (≈ 273 µM). The MIC (Candida albicans; strain Frazier, after 48 hours) was 75 µg/mL (≈ 273 µM), the MIC (Candida albicans; strain Fulcher, after 48 hours) was 75 µg/mL (≈ 273 µM) and the MIC (Candida albicans; strain Gay, after 48 hours) was 75 µg/mL (≈ 273 µM). The MIC (Candida albicans; strain Hons, after 48 hours) was 75 µg/mL (≈ 273 µM), the MIC (Candida albicans; strain Johnson, after 48 hours) was 75 µg/mL (≈ 273 µM) and the MIC (Candida albicans; strain Kenndy 2, after 48 hours) was 75 µg/mL (≈ 273 µM). It also gave an MIC (Candida albicans; strain Kennedy 1, after 48 hours) of 37.5 µg/mL (≈ 136 µM), an MIC (Candida albicans; strain Lehtman, after 48 hours) of 75 µg/mL (≈ 273 µM) and an MIC (Candida albicans; strain Lusk, after 48 hours) of 75 µg/mL (≈ 273 µM). The MIC (Candida albicans; strain Merkel, after 48 hours) was 75 µg/mL (≈ 273 µM), the MIC (Candida albicans; strain Newcomb, after 48 hours) was 37.5 µg/mL (≈ 136 µM) and the MIC (Candida albicans; strain Sherod, after 48 hours) was 75 µg/mL (≈ 273 µM). The MIC (Candida albicans; strain Shurelli, after 48 hours) was 75 µg/mL (≈ 273 µM), the MIC (Candida albicans; strain Sparks, after 48 hours) was 75 µg/mL (≈ 273 µM) and the MIC (Candida albicans; strain Tyner, after 48 hours) was 75 µg/mL (≈ 273 µM). For the same compound, the MIC (Aspergillus niger 6275) was 17.5 µg/mL (≈ 63.7 µM), the MIC (Aspergillus sp. No. 3) was 17.5 µg/mL (≈ 63.7 µM) and the MIC (Epidermophyton floccosum) was 3 µg/mL (≈ 10.9 µM). For the same compound, the MIC (Microsporum distortum) was 3 µg/mL (≈ 10.9 µM), the MIC (Microsporum nanum) was 3 µg/mL (≈ 10.9 µM) and the MIC (Trichophyton ascoides) was 17.5 µg/mL (≈ 63.7 µM). It also gave an MIC (Trichophyton discoides) of 7.5 µg/mL (≈ 27.3 µM), an MIC (Trichophyton ferrugineum) of 7.5 µg/mL (≈ 27.3 µM) and an MIC (Trichophyton gallinae) of 7.5 µg/mL (≈ 27.3 µM). It also gave an MIC (Trichophyton megninii) of 3 µg/mL (≈ 10.9 µM), an MIC ([2]; strain A, after 96 hours) of 7.5 µg/mL (≈ 27.3 µM) and an MIC ([2]; strain B, after 96 hours) of 7.5 µg/mL (≈ 27.3 µM). It also gave an MIC ([2]; strain C, after 96 hours) of 7.5 µg/mL (≈ 27.3 µM), an MIC ([2]; strain H377, after 96 hours) of 7.5 µg/mL (≈ 27.3 µM) and an MIC ([2]; strain Young, after 96 hours) of 7.5 µg/mL (≈ 27.3 µM). It also gave an MIC (Trichophyton rubrum; strain 3, after 96 hours) of 7.5 µg/mL (≈ 27.3 µM), an MIC (Trichophyton rubrum; strain 360, after 96 hours) of 7.5 µg/mL (≈ 27.3 µM) and an MIC (Trichophyton rubrum; strain Blehl, after 96 hours) of 7.5 µg/mL (≈ 27.3 µM). The MIC (Trichophyton rubrum; strain Haggerty, after 96 hours) was 7.5 µg/mL (≈ 27.3 µM), the MIC ([3]; strain 2, after 96 hours) was 3 µg/mL (≈ 10.9 µM) and the MIC ([3]; strain not given, after 96 hours) was 17.5 µg/mL (≈ 63.7 µM). The MIC (Trichophyton soudenense) was 17.5 µg/mL (≈ 63.7 µM), the MIC (Trichophyton tonsurans) was 17.5 µg/mL (≈ 63.7 µM) and the MIC (Tricoderm sp.) was 7.5 µg/mL (≈ 27.3 µM). For the same compound, the LD50 ([4]; Oral) was > 1000 mg/kg, the LD50 ([4]; ip, I.P.) was 250 mg/kg and the LD50 ([4]; sc, S.C.) was 850 mg/kg. It also gave an IC50 (Trychomonas vaginalis; 50% suppression, read-out: Minimal Level to Produce 50% Suppression) of 24 µg/mL (≈ 87.4 µM) and an IC90 (Trychomonas vaginalis; 90% suppression, read-out: Minimal Level to Produce 90% Suppression) of 40 µg/mL (≈ 146 µM).
